Assay results published in patent US20170328922A1, “METHODS AND PRODUCTS FOR LABELLING LIPIDS” (UNIVERSITY OF SOUTH AUSTRALIA, priority 2014, published 2017).

System: Drosophila fat body tissue
Assay: Live staining and confocal imaging of explanted fat body tissue
Assay type: cell-based
Experimental: All stocks were maintained in standard medium at 25° C. The yeast GAL4-UAS system was used for targeted gene expression (Brand and Perrimon, 1993). Fat-body specific expression of transgenes from the UAS were driven by CG-GAL4 (Asha et al., 2003). Transgenic UAS-Atg9RNAi stocks (#34901) and UAS-TorTED stocks (#7013) were obtained from the Bloomington Drosophila Stock Centre (Indiana University, IN, USA). Atg8aGFP was driven by an endogenous promoter (Kelso et al., 2004).
Bromophenol-blue was added to the fly media and used to define different developmental time points. […] Newly formed white pupae (0 h PF), were isolated onto moist filter paper and incubated at 25° C. for either two hours (+2 h PF) or four hours (+4 h PF).
Third instar larvae at −8 h PF were removed from standard media (normally feeding at this developmental stage) and placed on filter paper either soaked in 5% (w/v) sucrose (for amino acid deprivation), or 5% (w/v) tryptone pancreatic digest of casein (BD Bioscience USA; for carbohydrate deprivation), or soaked in water (for complete starvation). Larvae were incubated for 4-5 hours prior tissue isolation and imaging.
Fat body tissue was dissected into PBS from Drosophila larvae or pupae. The fat body tissue was either incubated with 10 μM tricarbonyl phenanthrolin (4-cyanophenyltretrazolato) Rhenium (I) in PBS for 15 minutes at room temperature, or LysoTracker® green (according to manufacturer instructions; Invitrogen, USA) and then mounted in carbomer-940 (Snowdrift farm, Tucson, USA) based optical coupling gel to prevent dehydration prior to imaging (Rothstein et al., 2006). For Oil Red O staining, fat body tissue was fixed in 4% (v/v) paraformaldehyde for 20 minutes, and incubated in 1/100 Oil Red 0 for 30 minutes and then washed in PBS before mounting in 80% glycerol.
A Ziess LSM710 META NLO confocal microscope (Zeiss, Germany), supplemented with a two-photon Mai-Tai® (tunable Ti:Sapphire femtosecond pulse laser, 710-920 nm, Spectra-Physics, Australia) was used for imaging. The images were acquired using a Plan-APOCHROMAT 63×/NA1.4 oil immersion objective. The Rhenium probe was excited at 830 nm using the two-photon pulse laser and detect at 600-654 nm. LysoTracker® green was imaged by excitation at 488 nm and detected at 497-558 nm. Atg8a-GFP was imaged with the Rhenium probe by excitation at 830 nm and resolved using spectral un-mixing using the Zen software package (based on spectral figure-printing of the two components). The Rhenium probe images and co-location analysis involved at least five separate images from five independent biological replicates, and one representative image from each treatment was selected for presentation (containing a minimum of 2 cells). For image quantification, two regions of interest (ROI) were selected at random with an area of 2500 μm^2 and the number of fluorescent puncta within the area counted, to give a minimum of 10 counts per treatment group. Comparison of means was performed by ANOVA with a Tukey post hoc tested in GraphPad Prism V.6.01 (USA).

N#Cc1ccc(-c2nn[n]([Re](=[C]=O)(=[C]=O)=[C]=O)n2)cc1.c1cnc2c(c1)ccc1cccnc12 [PhenCyano, Triscarbonyl phenanthroline (4-cyanophenyltetrazolato)Rhenium(I)]
probe distribution in fat body (0 h PF, 10 μM probe, 15 minutes): most of the Rhenium probe was still inside lipid droplets | probe distribution in fat body (+2 h PF, 10 μM probe, 15 minutes): dramatic reduction in the amount of Rhenium probe interacting with lipid droplets | vesicles staining with the probe that were also Atg8a-GFP positive (−4 h PF larvae starved (amino acid and sugar deprivation)): approximately 90±11% | probe distribution in fat body (−4 h PF, 10 μM probe, 15 minutes): interacted with the core of lipid droplets | probe distribution in fat body (−8 h PF, dominant negative TorTED expression): almost all of the Rhenium probe in LysoTracker® green positive vesicles
